Targets include D(1A) dopamine receptor (Homo sapiens, UniProt P21728); D(3) dopamine receptor (Homo sapiens, UniProt P35462); Histamine H3 receptor (Homo sapiens, UniProt Q9Y5N1).
In the next assay the target is Acetylcholinesterase (Homo sapiens, UniProt P22303). The class given is functional.
The target of a further assay is Prothrombin (Homo sapiens, UniProt P00734). The format is functional.
The target of assay [1] is T1, 5-hydroxytryptamine receptor 1A (Homo sapiens, UniProt P08908).
T1 sequence (P08908 whole entry): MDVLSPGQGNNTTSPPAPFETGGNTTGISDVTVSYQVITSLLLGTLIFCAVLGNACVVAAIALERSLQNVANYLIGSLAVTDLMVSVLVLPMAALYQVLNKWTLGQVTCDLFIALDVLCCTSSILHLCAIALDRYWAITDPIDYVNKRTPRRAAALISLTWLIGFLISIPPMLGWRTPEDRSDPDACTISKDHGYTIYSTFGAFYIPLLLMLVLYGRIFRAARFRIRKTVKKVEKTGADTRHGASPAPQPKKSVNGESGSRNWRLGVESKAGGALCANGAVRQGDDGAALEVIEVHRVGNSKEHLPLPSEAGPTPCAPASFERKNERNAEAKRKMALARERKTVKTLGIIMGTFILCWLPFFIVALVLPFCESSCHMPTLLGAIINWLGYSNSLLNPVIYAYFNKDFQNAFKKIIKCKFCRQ

The target of assay [2] is 3',5'-cyclic-AMP phosphodiesterase 4A (Homo sapiens, UniProt P27815). The class given is functional.
Sequence of 3',5'-cyclic-AMP phosphodiesterase 4A (P27815 whole entry): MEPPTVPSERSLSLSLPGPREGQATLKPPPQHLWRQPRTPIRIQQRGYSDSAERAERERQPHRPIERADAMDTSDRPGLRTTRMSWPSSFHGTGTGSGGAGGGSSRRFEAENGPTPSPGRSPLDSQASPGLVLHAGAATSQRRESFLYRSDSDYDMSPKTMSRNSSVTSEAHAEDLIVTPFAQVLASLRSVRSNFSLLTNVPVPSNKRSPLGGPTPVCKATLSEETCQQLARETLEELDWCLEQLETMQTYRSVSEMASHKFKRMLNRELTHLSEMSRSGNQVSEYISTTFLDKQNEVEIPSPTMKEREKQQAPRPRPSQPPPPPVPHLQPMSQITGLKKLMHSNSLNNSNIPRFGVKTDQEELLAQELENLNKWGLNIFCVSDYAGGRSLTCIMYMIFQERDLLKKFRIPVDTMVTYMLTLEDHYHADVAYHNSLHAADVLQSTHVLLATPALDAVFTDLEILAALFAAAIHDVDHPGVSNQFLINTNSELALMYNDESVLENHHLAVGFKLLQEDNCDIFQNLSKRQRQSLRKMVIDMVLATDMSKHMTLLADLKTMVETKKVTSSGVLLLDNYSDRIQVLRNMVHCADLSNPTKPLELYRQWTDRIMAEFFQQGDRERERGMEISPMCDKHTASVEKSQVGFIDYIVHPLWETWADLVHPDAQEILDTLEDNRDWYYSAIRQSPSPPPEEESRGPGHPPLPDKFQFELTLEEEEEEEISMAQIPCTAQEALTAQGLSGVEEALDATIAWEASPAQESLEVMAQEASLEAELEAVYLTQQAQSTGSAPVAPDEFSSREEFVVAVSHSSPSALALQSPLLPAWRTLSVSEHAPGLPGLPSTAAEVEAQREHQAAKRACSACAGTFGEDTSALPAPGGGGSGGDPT
For assay [3], the target named is T2, Prostaglandin G/H synthase 1 (Homo sapiens, UniProt P23219). The class given is functional.
T2 sequence (P23219 whole entry): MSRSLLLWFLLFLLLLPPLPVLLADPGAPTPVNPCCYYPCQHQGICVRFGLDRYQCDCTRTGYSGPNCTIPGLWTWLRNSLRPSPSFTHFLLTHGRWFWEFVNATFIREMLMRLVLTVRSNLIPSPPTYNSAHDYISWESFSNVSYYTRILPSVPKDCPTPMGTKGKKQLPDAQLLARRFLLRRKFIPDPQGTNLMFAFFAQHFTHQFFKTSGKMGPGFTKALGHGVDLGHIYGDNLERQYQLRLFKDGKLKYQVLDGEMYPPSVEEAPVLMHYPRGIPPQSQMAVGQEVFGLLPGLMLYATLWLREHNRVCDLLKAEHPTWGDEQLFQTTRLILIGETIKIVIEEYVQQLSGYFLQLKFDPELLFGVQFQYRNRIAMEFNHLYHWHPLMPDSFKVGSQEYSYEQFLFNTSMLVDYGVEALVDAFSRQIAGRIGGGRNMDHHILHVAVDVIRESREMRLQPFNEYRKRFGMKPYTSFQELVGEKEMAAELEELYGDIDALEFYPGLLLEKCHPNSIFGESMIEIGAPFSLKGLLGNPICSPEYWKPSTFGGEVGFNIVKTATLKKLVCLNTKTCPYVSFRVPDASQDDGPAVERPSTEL
The next assay deals with T3, Thromboxane A2 receptor (Homo sapiens, UniProt P21731).
T3 sequence (P21731 whole entry): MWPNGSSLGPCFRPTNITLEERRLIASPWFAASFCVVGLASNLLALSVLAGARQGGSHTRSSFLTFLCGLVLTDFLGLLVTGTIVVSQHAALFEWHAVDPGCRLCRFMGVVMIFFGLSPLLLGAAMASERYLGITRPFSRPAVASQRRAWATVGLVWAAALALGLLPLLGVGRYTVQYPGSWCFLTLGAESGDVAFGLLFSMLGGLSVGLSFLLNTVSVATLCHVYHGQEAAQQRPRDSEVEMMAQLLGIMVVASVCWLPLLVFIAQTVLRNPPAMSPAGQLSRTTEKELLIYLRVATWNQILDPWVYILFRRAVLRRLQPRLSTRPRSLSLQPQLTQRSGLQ
The format is functional, cell-based.

Assay [4] deals with Sodium-dependent dopamine transporter (Homo sapiens, UniProt Q01959).
The target in assay [5] is T4, Amine oxidase [flavin-containing] A (Homo sapiens, UniProt P21397).
T4 sequence (P21397 whole entry): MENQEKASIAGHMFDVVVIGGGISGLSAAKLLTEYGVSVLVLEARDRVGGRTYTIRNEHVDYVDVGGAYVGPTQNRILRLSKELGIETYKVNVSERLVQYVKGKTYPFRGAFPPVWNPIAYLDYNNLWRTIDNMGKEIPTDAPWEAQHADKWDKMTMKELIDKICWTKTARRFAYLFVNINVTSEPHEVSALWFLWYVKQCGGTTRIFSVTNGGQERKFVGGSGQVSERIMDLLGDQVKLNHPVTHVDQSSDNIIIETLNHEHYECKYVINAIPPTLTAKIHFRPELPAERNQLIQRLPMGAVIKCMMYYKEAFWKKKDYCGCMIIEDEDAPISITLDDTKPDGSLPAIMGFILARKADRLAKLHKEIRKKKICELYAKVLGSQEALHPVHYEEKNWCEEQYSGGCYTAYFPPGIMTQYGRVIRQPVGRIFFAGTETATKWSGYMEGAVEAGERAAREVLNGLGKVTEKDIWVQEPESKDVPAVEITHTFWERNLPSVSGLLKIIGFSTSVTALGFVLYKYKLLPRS
The class given is functional.

The target of assay [6] is T2, Prostaglandin G/H synthase 1. The format is functional. This is another data set of the same source.
Assay [7] has as its target cGMP-inhibited 3',5'-cyclic phosphodiesterase 3A (Homo sapiens, UniProt Q14432). The class given is functional.
Assay [8] deals with Sodium-dependent noradrenaline transporter (Homo sapiens, UniProt P23975).
Assay [9] deals with T5, Muscarinic acetylcholine receptor M2 (Homo sapiens, UniProt P08172).
T5 sequence (P08172 whole entry): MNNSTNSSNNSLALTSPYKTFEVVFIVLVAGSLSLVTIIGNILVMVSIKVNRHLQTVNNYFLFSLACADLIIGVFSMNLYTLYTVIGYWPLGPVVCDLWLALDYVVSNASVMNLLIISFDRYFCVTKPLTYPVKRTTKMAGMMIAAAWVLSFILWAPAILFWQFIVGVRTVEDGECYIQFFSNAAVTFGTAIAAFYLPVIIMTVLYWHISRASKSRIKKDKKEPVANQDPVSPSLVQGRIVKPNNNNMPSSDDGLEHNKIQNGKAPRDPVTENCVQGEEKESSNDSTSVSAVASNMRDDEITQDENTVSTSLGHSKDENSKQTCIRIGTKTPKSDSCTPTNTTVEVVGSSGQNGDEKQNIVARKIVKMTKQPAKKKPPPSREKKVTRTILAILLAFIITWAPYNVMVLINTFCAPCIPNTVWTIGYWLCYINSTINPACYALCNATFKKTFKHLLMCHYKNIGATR

Assay [10] addresses T6, Alpha-1A adrenergic receptor (Homo sapiens, UniProt P35348).
T6 sequence (P35348 whole entry): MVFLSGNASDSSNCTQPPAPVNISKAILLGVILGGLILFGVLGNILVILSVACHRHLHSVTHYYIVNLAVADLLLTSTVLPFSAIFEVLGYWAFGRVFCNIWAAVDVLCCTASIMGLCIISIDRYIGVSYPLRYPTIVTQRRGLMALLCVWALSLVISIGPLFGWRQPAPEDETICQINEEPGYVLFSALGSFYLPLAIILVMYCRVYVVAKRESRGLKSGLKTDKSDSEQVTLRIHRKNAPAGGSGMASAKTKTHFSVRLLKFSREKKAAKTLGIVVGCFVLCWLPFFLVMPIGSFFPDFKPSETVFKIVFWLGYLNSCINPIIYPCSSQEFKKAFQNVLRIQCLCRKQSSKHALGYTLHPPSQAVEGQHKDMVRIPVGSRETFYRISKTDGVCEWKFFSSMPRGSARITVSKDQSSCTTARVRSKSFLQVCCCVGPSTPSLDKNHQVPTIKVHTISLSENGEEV
The class given is functional, cell-based.

A word on the AC50: it is the concentration at which the activity in the assay is half-maximal. Low values mean activity at low concentration, high ones activity only at high concentration.
Note: assay procedure not described here.

Sequence of D(3) dopamine receptor (P35462 whole entry): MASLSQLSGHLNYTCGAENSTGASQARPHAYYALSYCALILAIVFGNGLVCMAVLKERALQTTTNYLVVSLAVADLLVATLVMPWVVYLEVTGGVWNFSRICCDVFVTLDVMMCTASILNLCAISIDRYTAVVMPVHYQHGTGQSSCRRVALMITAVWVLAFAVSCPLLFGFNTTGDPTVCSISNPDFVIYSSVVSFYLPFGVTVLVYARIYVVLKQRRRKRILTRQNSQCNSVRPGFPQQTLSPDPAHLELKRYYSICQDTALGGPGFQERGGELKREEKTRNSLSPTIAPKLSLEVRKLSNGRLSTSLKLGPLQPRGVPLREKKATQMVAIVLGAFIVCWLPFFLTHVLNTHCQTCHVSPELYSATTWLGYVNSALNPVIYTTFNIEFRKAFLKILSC
Sequence of D(1A) dopamine receptor (P21728 whole entry): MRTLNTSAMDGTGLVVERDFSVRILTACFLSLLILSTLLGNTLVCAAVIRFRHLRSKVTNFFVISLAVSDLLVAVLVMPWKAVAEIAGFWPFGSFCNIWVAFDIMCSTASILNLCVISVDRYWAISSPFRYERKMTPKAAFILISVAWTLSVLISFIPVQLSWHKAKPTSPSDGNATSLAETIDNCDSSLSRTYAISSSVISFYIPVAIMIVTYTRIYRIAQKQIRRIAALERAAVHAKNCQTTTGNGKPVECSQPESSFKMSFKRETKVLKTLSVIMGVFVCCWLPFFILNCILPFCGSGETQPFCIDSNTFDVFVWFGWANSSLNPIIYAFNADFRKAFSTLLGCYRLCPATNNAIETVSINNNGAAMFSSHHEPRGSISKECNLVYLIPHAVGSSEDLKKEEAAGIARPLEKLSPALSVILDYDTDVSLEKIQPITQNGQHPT
Sequence of Histamine H3 receptor (Q9Y5N1 whole entry): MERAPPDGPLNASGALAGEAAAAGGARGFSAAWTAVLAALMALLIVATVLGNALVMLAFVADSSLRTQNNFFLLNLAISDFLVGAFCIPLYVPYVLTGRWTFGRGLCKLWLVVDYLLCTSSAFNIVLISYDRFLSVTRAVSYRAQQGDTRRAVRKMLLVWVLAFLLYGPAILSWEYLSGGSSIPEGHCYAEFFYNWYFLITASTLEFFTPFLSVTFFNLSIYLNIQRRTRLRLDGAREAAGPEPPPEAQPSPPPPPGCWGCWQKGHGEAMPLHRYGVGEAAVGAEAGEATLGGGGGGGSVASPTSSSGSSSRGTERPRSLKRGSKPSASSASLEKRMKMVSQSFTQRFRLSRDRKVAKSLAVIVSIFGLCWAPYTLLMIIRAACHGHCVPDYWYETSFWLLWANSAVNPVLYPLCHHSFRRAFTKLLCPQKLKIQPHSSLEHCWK
Sequence of cGMP-inhibited 3',5'-cyclic phosphodiesterase 3A (Q14432 whole entry): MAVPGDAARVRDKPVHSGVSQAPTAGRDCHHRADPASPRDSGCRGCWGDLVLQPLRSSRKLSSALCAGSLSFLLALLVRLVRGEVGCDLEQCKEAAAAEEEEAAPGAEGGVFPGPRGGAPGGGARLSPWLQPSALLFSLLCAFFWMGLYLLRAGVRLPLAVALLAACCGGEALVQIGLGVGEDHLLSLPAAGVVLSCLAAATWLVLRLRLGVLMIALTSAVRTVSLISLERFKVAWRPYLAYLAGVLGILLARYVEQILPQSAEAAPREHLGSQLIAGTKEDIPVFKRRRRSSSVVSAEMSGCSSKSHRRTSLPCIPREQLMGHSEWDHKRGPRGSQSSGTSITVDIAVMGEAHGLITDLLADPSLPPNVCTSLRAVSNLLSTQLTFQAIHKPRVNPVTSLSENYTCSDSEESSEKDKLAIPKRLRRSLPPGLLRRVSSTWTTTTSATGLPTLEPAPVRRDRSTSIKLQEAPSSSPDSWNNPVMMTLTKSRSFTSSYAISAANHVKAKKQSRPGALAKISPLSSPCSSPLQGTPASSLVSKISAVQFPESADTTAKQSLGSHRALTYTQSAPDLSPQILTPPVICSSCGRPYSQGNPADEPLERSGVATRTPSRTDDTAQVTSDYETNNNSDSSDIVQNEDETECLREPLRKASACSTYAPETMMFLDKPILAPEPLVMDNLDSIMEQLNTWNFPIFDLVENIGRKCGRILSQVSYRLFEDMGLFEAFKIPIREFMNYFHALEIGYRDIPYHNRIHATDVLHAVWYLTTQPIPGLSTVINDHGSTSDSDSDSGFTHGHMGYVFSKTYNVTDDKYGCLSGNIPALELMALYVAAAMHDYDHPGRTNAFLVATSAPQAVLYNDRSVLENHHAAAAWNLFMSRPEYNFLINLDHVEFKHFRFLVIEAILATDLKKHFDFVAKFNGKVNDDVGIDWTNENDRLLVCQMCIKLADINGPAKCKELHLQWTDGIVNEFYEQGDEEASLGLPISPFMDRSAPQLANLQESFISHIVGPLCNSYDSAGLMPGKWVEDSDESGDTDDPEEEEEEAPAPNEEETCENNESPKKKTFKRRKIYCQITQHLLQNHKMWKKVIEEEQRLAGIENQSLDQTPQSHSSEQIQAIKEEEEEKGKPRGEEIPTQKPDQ
Sequence of Acetylcholinesterase (P22303 whole entry): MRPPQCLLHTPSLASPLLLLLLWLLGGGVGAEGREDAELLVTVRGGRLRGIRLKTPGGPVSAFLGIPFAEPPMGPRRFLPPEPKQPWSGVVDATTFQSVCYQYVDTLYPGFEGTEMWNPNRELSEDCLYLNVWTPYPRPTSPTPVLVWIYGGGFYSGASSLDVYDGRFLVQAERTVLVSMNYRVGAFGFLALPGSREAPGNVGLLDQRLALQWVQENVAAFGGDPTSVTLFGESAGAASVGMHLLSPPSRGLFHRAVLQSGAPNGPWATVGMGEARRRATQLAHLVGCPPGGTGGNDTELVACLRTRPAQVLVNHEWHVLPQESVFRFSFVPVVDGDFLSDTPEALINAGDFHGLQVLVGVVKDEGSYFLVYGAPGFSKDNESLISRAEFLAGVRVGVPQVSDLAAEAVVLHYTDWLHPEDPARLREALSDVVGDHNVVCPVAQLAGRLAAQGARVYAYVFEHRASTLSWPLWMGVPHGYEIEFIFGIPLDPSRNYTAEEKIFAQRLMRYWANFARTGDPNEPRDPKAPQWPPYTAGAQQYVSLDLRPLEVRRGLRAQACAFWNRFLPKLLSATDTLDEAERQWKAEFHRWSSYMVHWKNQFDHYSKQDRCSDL

As to `CCCCc1oc2ccc(NS(C)(=O)=O)cc2c1C(=O)c1ccc(OCCCN(CCCC)CCCC)cc1` [DRONEDARONE], the AC50 was 5.4 µM at D(1A) dopamine receptor; over 30 µM on Acetylcholinesterase; over 30 µM at Prothrombin; 1.72 µM in [1]; 16.8 µM in assay [2]; over 30 µM in assay [3]. Besides, the AC50 is 14.7 µM on Thromboxane A2 receptor; 1.73 µM in [4]; over 30 µM in assay [5]; over 30 µM in assay [6]; over 30 µM in [7]; 0.642 µM on D(3) dopamine receptor. Further, the AC50 is 3.98 µM in assay [8], 2.39 µM in assay [9], 28.4 µM at Histamine H3 receptor and over 30 µM in assay [10].
`O=C(O)Cc1ccccc1Oc1ccc(Cl)cc1Cl` [FENCLOFENAC]: the half-maximal activity concentration (AC50) (at D(1A) dopamine receptor; on Acetylcholinesterase; on Prothrombin; in assay [1]; in [2]; in [3]) was over 30 µM in each case. For the same molecule, the AC50 (at Thromboxane A2 receptor; in assay [4]; in [5]; in assay [6]; in [7]; on D(3) dopamine receptor) was over 30 µM each time. Besides, the AC50 (in [8]; in assay [9]; on Histamine H3 receptor; in assay [10]) was over 30 µM throughout.
`CC(C(=O)O)c1cccc(Oc2ccccc2)c1` (stereo not drawn) [FENOPROFEN]: the half-maximal activity concentration (AC50) at D(1A) dopamine receptor is over 30 µM; on Acetylcholinesterase it was over 30 µM; on Prothrombin it was over 30 µM; in assay [1], over 30 µM; in assay [2], over 30 µM; in assay [3], 13.5 µM. Besides, the AC50 on Thromboxane A2 receptor was over 30 µM; in [4] it was over 30 µM; in assay [5] it was over 30 µM; in assay [6], 1.52 µM; in [7], over 30 µM; on D(3) dopamine receptor, over 30 µM. Also, the AC50 (in assay [8]; in [9]; at Histamine H3 receptor; in assay [10]) was over 30 µM each time.
Regarding `CC(C)C(=O)Oc1ccc(CO)cc1[C@H](CCN(C(C)C)C(C)C)c1ccccc1` [FESOTERODINE], the AC50 (at D(1A) dopamine receptor; on Acetylcholinesterase; at Prothrombin; in [1]; in assay [2]; in assay [3]) was over 30 µM in each case. Also, the AC50 (on Thromboxane A2 receptor; in assay [4]; in assay [5]; in assay [6]; in assay [7]; on D(3) dopamine receptor) was over 30 µM each time. The AC50 in assay [8] is over 30 µM; in assay [9] it was 0.414 µM; on Histamine H3 receptor it was over 30 µM; in assay [10], over 30 µM.
As to `CC1(C)O[C@@H]2C[C@H]3[C@@H]4C[C@H](F)C5=CC(=O)C=C[C@]5(C)[C@@]4(F)[C@@H](O)C[C@]3(C)[C@]2(C(=O)CO)O1` [FLUOCINOLONE ACETONIDE], the AC50 (at D(1A) dopamine receptor; at Acetylcholinesterase; at Prothrombin; in assay [1]; in assay [2]; in assay [3]) was over 30 µM each time. Moreover, the AC50 (at Thromboxane A2 receptor; in [4]; in [5]; in assay [6]; in assay [7]; at D(3) dopamine receptor) was over 30 µM in each case. For the same molecule, the AC50 (in assay [8]; in assay [9]; on Histamine H3 receptor; in assay [10]) was over 30 µM in each case.
Take `O=C(O)P(=O)(O)O` [FOSCARNET]: the concentration at half-maximal activity (AC50) (on D(1A) dopamine receptor; at Acetylcholinesterase; on Prothrombin; in [1]; in [2]; in [3]) was over 30 µM throughout. In addition, the half-maximal activity concentration (AC50) (at Thromboxane A2 receptor; in assay [4]; in assay [5]; in [6]; in assay [7]; on D(3) dopamine receptor) was over 30 µM in each case. In addition, the AC50 (in assay [8]; in assay [9]; on Histamine H3 receptor; in assay [10]) was over 30 µM throughout.
Turning to `Cc1ccc(C)c(OCCCC(C)(C)C(=O)O)c1` [GEMFIBROZIL], the AC50 (on D(1A) dopamine receptor; on Acetylcholinesterase; on Prothrombin; in [1]; in [2]; in assay [3]) was over 30 µM each time. Besides, the AC50 (on Thromboxane A2 receptor; in [4]; in [5]; in assay [6]; in assay [7]; at D(3) dopamine receptor) was over 30 µM each time. For the same molecule, the AC50 (in assay [8]; in assay [9]; at Histamine H3 receptor; in assay [10]) was over 30 µM each time.
Regarding `COc1ccccc1OC1(C)OC(=O)c2ccccc2O1` (stereo not drawn) [GUAIMESAL], the half-maximal activity concentration (AC50) (at D(1A) dopamine receptor; on Acetylcholinesterase; at Prothrombin; in [1]; in assay [2]; in assay [3]) was over 30 µM in each case. The AC50 (on Thromboxane A2 receptor; in assay [4]; in [5]; in [6]; in assay [7]; on D(3) dopamine receptor) was over 30 µM throughout. Moreover, the half-maximal activity concentration (AC50) (in [8]; in [9]; on Histamine H3 receptor; in assay [10]) was over 30 µM in each case.

Values taken from ChEMBL document CHEMBL5291721, “A preclinical secondary pharmacology resource illuminates target-adverse drug reaction associations of marketed drugs” (Nat Commun, 2023).
